What was measured:
[1] = test system: bicuculline-induced tonic extension in mice; experiment: protection against bicuculline-induced tonic extension in mice; assay type: in vivo; conditions: Mus musculus, iv, 3 hours prior to bicuculline 0.7 mg/kg i.v., read-out: Anticonvulsive effect (versus Bicuculline) (% Protection)
Protocol: In the second study the anti-convulsant effect of the compounds of the present invention was examined in two seizure models; bicuculline-induced tonic extension in mice and 3-mercaptopropionic acid (3-MPA)-induced tonic extension in mice.
In the bicuculline study, the ability of the compounds of the present invention to protect against tonic extension (involving rigidity) was evaluated as follows. Each test compound was administered to a group of ten mice at a dose of 10 mg/kg, 3 hours prior to the i.v. administration of bicuculline (0.7 mg/kg). Anticonvulsant activity in this test is expressed as percentage of animals tested. The results are given in Table II, column 6, and indicate that several compounds display significant anticonvulsive activity in this test. The anticonvulsant effect of the compounds has also been tested with respect to the tonic extension induced by 3-mercaptopropionic acid (120 mg/kg subcutaneously) in mice.

α2 -adrenergic receptors = target: T1, α2 -adrenergic receptors (Rattus norvegicus, UniProt P22909); experiment: binding to α2-adrenergic receptors on rat brain homogenates (3H-p. aminoclonidine); conditions: 10^-7 M; for inhibition at 0.1 µM: rat brain homogenates, 0.7 nM 3H-p. aminoclonidine, read-out: % Inhibition of the Specific Binding at 10^-7 M for α2 Recep.; for affinity for α2 receptors (in words): in vitro binding assay
T1 construct: from tissue; host or cells: rat brain homogenates
T1 sequence (P22909 1-465): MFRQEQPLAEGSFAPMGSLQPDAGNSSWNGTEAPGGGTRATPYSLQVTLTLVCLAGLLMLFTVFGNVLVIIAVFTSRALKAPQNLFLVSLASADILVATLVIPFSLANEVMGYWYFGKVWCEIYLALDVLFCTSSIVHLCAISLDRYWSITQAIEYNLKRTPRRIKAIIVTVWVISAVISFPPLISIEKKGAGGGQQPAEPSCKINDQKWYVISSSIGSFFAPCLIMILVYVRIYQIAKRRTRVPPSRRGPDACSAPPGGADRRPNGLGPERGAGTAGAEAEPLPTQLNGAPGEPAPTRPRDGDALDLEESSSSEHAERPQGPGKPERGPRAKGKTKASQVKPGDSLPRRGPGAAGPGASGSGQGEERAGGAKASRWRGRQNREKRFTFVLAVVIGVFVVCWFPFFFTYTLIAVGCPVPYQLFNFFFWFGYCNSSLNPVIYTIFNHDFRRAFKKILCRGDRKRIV
Protocol: The activity of the compounds according to the invention with respect to binding of the α-adrenergic receptors was determined in vitro according to a method deriving from the works of B. R. Rouot et al., Life Sci., 25, 769 (1979) and of D. U'Prichard et al., Mol. Pharmacol., 13, 454 (1977). This method consists in measuring the binding to the receptor on rat brain homogenates, by marking by means of a specific tritriated ligand placed in competition with the product to be tested.
In the presenct case the binding to the α1 -adrenergic receptors was measured by means of 1.6 nM of ^3 H-WB 4101 and the binding to the α2 -adrenergic receptors by means of 0.7 nM of ^3 H-p. aminoclonidine, the non-specific binding being determined by 1,000 nM of phentolamine. The results are given in Table II, column 3, and are expressed in terms of percentage of inhibition of the specific binding of 10^-7 molar compound concentration.
(2) The specific binding is the total binding less the nonspecific
binding. The total binding is the binding in the absence of nonradioactiv
drug. The nonspecific binding is the binding in the presence of 1,000 nM
of phentolamine. The products of the invention are tested at a
concentration of 10^-7 molar.

[2] = acute toxicity after oral administration to mice (LD50); conditions: mouse, in vivo, 15 days mortality
Protocol: The acute toxicity of the compounds of the present invention was studied after oral administration to mice. The products to be tested, suspended in a 1% tragacanth gum mucilage, were administered by means of an intragastric probe to groups of three male mice which had fasted since the preceding day. The doses tested are a function of the effect observed and can vary from 3,000 to 3 mg/kg or less. The mortality was recorded for 15 days. The lethal dose for 50% of the animals (LD50) was calculated according to the method of J. Litchfield and F. Wilcoxon, J. Pharmacol. Exp. Ther., 96, 99 (1949) and expressed in mg/kg. The effect of the products on the behaviour of the animals is observed until 5 to 6 hours after the treatment indicated above and after 24 hours, using a method derived from that of S. Irwin, described by R. A. Turner, Screening Methods in Pharmacology, Chapter 3, pages 22-34, Academic Press, 1965. If anomalies are noted, the observation is prolonged and smaller doses are tested.

Structure (SMILES)	responders at 10 mg/kg [1]	inhibition at 0.1 µM (α2 -adrenergic receptors)	affinity for α2 receptors (in words) (α2 -adrenergic receptors)	LD50 at 360 h [2]
c1ccc(C(Cc2c[nH]cn2)c2ccccc2)cc1 [Compound 1, 4(5)-(2,2-diphenylethyl)-imidazole]	0%	89%	high affinity	155 mg/kg
CC(c1c[nH]cn1)C(c1ccccc1)c1ccccc1 (stereo not drawn) [Compound 4]	40%	5%	–	> 300 mg/kg
Cc1cccc(C(Cc2c[nH]cn2)c2ccccc2)c1 (stereo not drawn) [Compound 9, 4(5)-{[2-(3-methylphenyl)-2-phenyl]ethyl}imidazole]	20%	85%	high affinity	155 mg/kg
Cc1ccccc1C(Cc1c[nH]cn1)c1ccccc1 (stereo not drawn) [Compound 12]	50%	71%	–	155 mg/kg
Clc1ccccc1C(Cc1c[nH]cn1)c1ccccc1 (stereo not drawn) [Compound 13, 4(5)-{[2-(2-chlorophenyl)-2-phenyl]ethyl}imidazole]	20%	81%	high affinity	172 mg/kg
Fc1ccc(C(Cc2c[nH]cn2)c2ccccc2)cc1 (stereo not drawn) [Compound 14, 4(5)-{[2-(4-fluorophenyl)-2-phenyl]ethyl}imidazole]	0%	69%	–	155 mg/kg
Fc1ccc(C(Cc2c[nH]cn2)c2ccccc2F)cc1 (stereo not drawn) [Compound 15, 4(5)-{[2-(2-fluorophenyl)-2-(4'-fluorophenyl)]ethyl}imidazole]	0%	77%	–	155 mg/kg
Cc1ccc(C)c(C(Cc2c[nH]cn2)c2ccccc2)c1 (stereo not drawn) [Compound 16]	20%	31%	–	> 300 mg/kg
COc1ccc(C(Cc2c[nH]cn2)c2ccccc2)cc1 (stereo not drawn) [Compound 17, 4(5)-{[2-(4-methoxyphenyl)-2-phenyl]ethyl}imidazole]	10%	78%	–	350 mg/kg
Cc1ccc(C(Cc2c[nH]cn2)c2ccccc2)cc1 (stereo not drawn) [Compound 21]	50%	74%	–	350 mg/kg
